The target of the assay is HSD17B13 (Homo sapiens (Human), UniProt Q7Z5P4). The assay is described as follows: HSD17B13 enzymatic inhibition assay (150 nM or 50 nM HSD17B13). In kind it is biochemical. The following applies: 50 nM HSD17B13; read-out: Inhibition of 50 nM of HSD17B13 IC50.
Chain of HSD17B13 (Q7Z5P4 other isoform, or with tags, fused parts or gaps): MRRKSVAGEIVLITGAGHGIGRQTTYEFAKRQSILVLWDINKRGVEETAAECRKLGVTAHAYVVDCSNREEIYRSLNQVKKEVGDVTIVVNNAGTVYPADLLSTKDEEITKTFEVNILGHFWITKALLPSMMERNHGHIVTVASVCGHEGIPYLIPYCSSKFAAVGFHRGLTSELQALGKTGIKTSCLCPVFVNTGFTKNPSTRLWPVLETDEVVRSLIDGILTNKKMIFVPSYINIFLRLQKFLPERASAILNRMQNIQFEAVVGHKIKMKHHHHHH

Regarding `CCCC1CC(NC(=O)c2ccc(C(F)(F)F)[nH]c2=O)c2cc(C)ccc2O1` (stereo not drawn) [Compound 403, N-(6-methyl-2-propylchroman-4-yl)-2-oxo-6-(trifluoromethyl)-1,2-dihydropyridine-3-carboxamide], the concentration for half-maximal inhibition (IC50) was 110 nM.
The value for `CCC1CC(NC(=O)c2ccc(C(F)(F)F)[nH]c2=O)c2cc(C)ccc2O1` (stereo not drawn) [Compound 404, N-(2-ethyl-6-methylchroman-4-yl)-2-oxo-6-(trifluoromethyl)-1,2-dihydropyridine-3-carboxamide] was 220 nM; that for `Cc1ccc2c(c1)C(NC(=O)c1ccc(C(F)(F)F)[nH]c1=O)CO2` (stereo not drawn) [Compound 408, N-(5-methyl-2,3-dihydrobenzofuran-3-yl)-2-oxo-6-(trifluoromethyl)-1,2-dihydropyridine-3-carboxamide] was 2470 nM.
Consider `COc1ccc2c(c1)Sc1cc(N)ccc1C2NC(=O)c1ccc(C(F)F)[nH]c1=O` (stereo not drawn) [Compound 410, N-(3-amino-6-methoxy-9H-thioxanthen-9-yl)-6-(difluoromethyl)-2-oxo-1,2-dihydropyridine-3-carboxamide], for which the IC50 was 430 nM.
Turning to `COc1ccc2c(c1)Sc1cc(N)ccc1C2NC(=O)c1ccc(C(F)(F)F)[nH]c1=O` (stereo not drawn) [Compound 411, N-(3-amino-6-methoxy-9H-thioxanthen-9-yl)-2-oxo-6-(trifluoromethyl)-1,2-dihydropyridine-3-carboxamide], the IC50 came out at 80 nM.
In the case of `Cc1ccc(C(CC2CCCC2)NC(=O)c2ccc(C(F)(F)F)[nH]c2=O)cc1` (stereo not drawn) [Compound 412, N-(2-cyclopentyl-1-(p-tolyl)ethyl)-2-oxo-6-(trifluoromethyl)-1,2-dihydropyridine-3-carboxamide], the 50% inhibitory concentration (IC50) was 110 nM.
Turning to `O=C(NC1c2cc(OC(F)(F)F)ccc2-c2ccc(OC(F)(F)F)cc21)c1ccc(C(F)(F)F)[nH]c1=O` [Compound 413, N-(2,7-bis(trifluoromethoxy)-9H-fluoren-9-yl)-2-oxo-6-(trifluoromethyl)-1,2-dihydropyridine-3-carboxamide], the IC50 amounted to 880 nM.
With `COc1ccc2c(c1)C(NC(=O)c1ccc(C(F)(F)F)[nH]c1=O)c1cc(OC)ccc1-2` [Compound 415, N-(2,7-dimethoxy-9H-fluoren-9-yl)-2-oxo-6-(trifluoromethyl)-1,2-dihydropyridine-3-carboxamide], the IC50 was determined as 50 nM.
Turning to `Cc1ccc2c(c1)C(NC(=O)c1ccc(C(F)(F)F)[nH]c1=O)c1cc(C)ccc1-2` [Compound 418, N-(2,7-dimethyl-9H-fluoren-9-yl)-2-oxo-6-(trifluoromethyl)-1,2-dihydropyridine-3-carboxamide], the IC50 was 70 nM.
As to `CNc1ccc(C(NC(=O)c2ccc(C(F)(F)F)[nH]c2=O)c2ccc(C)cc2)cc1` (stereo not drawn) [Compound 420, N-((4-(methylamino)phenyl)(p-tolyl)methyl)-2-oxo-6-(trifluoromethyl)-1,2-dihydropyridine-3-carboxamide], the IC50 stood at 130 nM.
In the case of `CC(F)(F)c1ccc(C(=O)NC2c3ccccc3Sc3ccccc32)c(=O)[nH]1` [Compound 423, 6-(1,1-difluoroethyl)-2-oxo-N-(9H-thioxanthen-9-yl)-1,2-dihydropyridine-3-carboxamide], the 50% inhibitory concentration (IC50) came to 790 nM.
The value for `CC(F)(F)c1ccc(C(=O)NC2c3ccccc3Oc3ccccc32)c(=O)[nH]1` [Compound 424, 6-(1,1-difluoroethyl)-2-oxo-N-(9H-xanthen-9-yl)-1,2-dihydropyridine-3-carboxamide] was 1140 nM; that for `Cc1ccc2c(c1)S(=O)(=O)c1cc(C)ccc1C2NC(=O)c1cc(N2CCNCC2)c(C(F)(F)F)[nH]c1=O` [Compound 425, N-(3,6-dimethyl-10,10-dioxido-9H-thioxanthen-9-yl)-2-oxo-5-(piperazin-1-yl)-6-(trifluoromethyl)-1,2-dihydropyridine-3-carboxamide] was 270 nM; that for `Cc1ccc2c(c1)Sc1cc(C)ccc1C2NC(=O)c1cc(N2CCN(C)CC2)c(C(F)(F)F)[nH]c1=O` [Compound 427, N-(3,6-dimethyl-9H-thioxanthen-9-yl)-5-(4-methylpiperazin-1-yl)-2-oxo-6-(trifluoromethyl)-1,2-dihydropyridine-3-carboxamide] was 130 nM.
For `Cc1ccc2c(c1)S(=O)(=O)c1cc(C)ccc1C2NC(=O)c1cc(NC2CCCCC2)c(C(F)(F)F)[nH]c1=O` [Compound 428, 5-(cyclohexylamino)-N-(3,6-dimethyl-10,10-dioxido-9H-thioxanthen-9-yl)-2-oxo-6-(trifluoromethyl)-1,2-dihydropyridine-3-carboxamide], the IC50 turned out to be 20 nM.
For the compound `Cc1ccc2c(c1)Oc1cc(C)ccc1C2NC(=O)c1cc(CN2CCNCC2)c(C(F)(F)F)[nH]c1=O` [Compound 429, N-(3,6-dimethyl-9H-xanthen-9-yl)-2-oxo-5-(piperazin-1-ylmethyl)-6-(trifluoromethyl)-1,2-dihydropyridine-3-carboxamide], the IC50 amounted to 320 nM.
Regarding `Cc1ccc2c(c1)Oc1cc(C)ccc1C2NC(=O)c1cc(N2CCN(Cc3ccccc3)CC2)c(C(F)(F)F)[nH]c1=O` [Compound 430, 5-(4-benzylpiperazin-1-yl)-N-(3,6-dimethyl-9H-xanthen-9-yl)-2-oxo-6-(trifluoromethyl)-1,2-dihydropyridine-3-carboxamide], the IC50 was 40 nM.
In the case of `Cc1ccc2c(c1)Sc1cc(C)ccc1C2NC(=O)c1cc(NC2CCCCC2)c(C(F)(F)F)[nH]c1=O` [Compound 431, 5-(cyclohexylamino)-N-(3,6-dimethyl-9H-thioxanthen-9-yl)-2-oxo-6-(trifluoromethyl)-1,2-dihydropyridine-3-carboxamide], the IC50 worked out at 130 nM.
For the compound `Cc1ccc2c(c1)Sc1cc(C)ccc1C2NC(=O)c1cc(N2CCNCC2)c(C(F)(F)F)[nH]c1=O` [Compound 432, N-(3,6-dimethyl-9H-thioxanthen-9-yl)-2-oxo-5-(piperazin-1-yl)-6-(trifluoromethyl)-1,2-dihydropyridine-3-carboxamide], the IC50 is 330 nM.
As for `Cc1ccc2c(c1)Oc1cc(C)ccc1C2NC(=O)c1cc(NC2CCNCC2)c(C(F)(F)F)[nH]c1=O` [Compound 433, N-(3,6-dimethyl-9H-xanthen-9-yl)-2-oxo-5-(piperidin-4-ylamino)-6-(trifluoromethyl)-1,2-dihydropyridine-3-carboxamide], the IC50 was found to be 730 nM.
In the case of `Cc1ccc2c(c1)Oc1cc(C)ccc1C2NC(=O)c1cc(N2CCNCC2)c(C(F)(F)F)[nH]c1=O` [Compound 434, N-(3,6-dimethyl-9H-xanthen-9-yl)-2-oxo-5-(piperazin-1-yl)-6-(trifluoromethyl)-1,2-dihydropyridine-3-carboxamide], the IC50 is 110 nM.
In the case of `Cc1ccc2c(c1)Oc1cccc(C)c1C2NC(=O)c1cc(N2CCCCC2)c(C(F)(F)F)[nH]c1=O` (stereo not drawn) [Compound 437, N-(1,6-dimethyl-9H-xanthen-9-yl)-2-oxo-5-(piperidin-1-yl)-6-(trifluoromethyl)-1,2-dihydropyridine-3-carboxamide], the IC50 was determined as 1290 nM.
With `Cc1ccc2c(c1)Oc1cccc(C)c1C2NC(=O)c1cc(N2CCOCC2)c(C(F)(F)F)[nH]c1=O` (stereo not drawn) [Compound 439, N-(1,6-dimethyl-9H-xanthen-9-yl)-5-morpholino-2-oxo-6-(trifluoromethyl)-1,2-dihydropyridine-3-carboxamide], the IC50 was determined as 560 nM.
For the compound `COCCOc1ccc2c(c1)Oc1ccccc1C2NC(=O)c1ccc(C(F)(F)F)[nH]c1=O` (stereo not drawn) [Compound 440, N-(3-(2-methoxyethoxy)-9H-xanthen-9-yl)-2-oxo-6-(trifluoromethyl)-1,2-dihydropyridine-3-carboxamide], the IC50 stood at 700 nM.
To `Cc1ccc(C(NC(=O)c2ccc(C(F)(F)F)[nH]c2=O)c2ccccc2)c(S(C)(=O)=O)c1` (stereo not drawn) [Compound 442, N-((4-methyl-2-(methylsulfonyl)phenyl)(phenyl)methyl)-2-oxo-6-(trifluoromethyl)-1,2-dihydropyridine-3-carboxamide] belongs 2560 nM; to `CCc1ccc(C(NC(=O)c2ccc(C(F)(F)F)[nH]c2=O)c2ccc(C)cc2)cc1` (stereo not drawn) [Compound 443, N-((4-ethylphenyl)(p-tolyl)methyl)-2-oxo-6-(trifluoromethyl)-1,2-dihydropyridine-3-carboxamide], 120 nM; to `CCc1cccc(C(NC(=O)c2ccc(C(F)(F)F)[nH]c2=O)c2ccc(C)cc2)c1` (stereo not drawn) [Compound 444, N-((3-ethylphenyl)(p-tolyl)methyl)-2-oxo-6-(trifluoromethyl)-1,2-dihydropyridine-3-carboxamide], 170 nM.
Turning to `COc1cccc(C(NC(=O)c2ccc(C(F)(F)F)[nH]c2=O)c2ccc(C)cc2)c1` (stereo not drawn) [Compound 446, N-((3-methoxyphenyl)(p-tolyl)methyl)-2-oxo-6-(trifluoromethyl)-1,2-dihydropyridine-3-carboxamide], the IC50 was 270 nM.
For the compound `COc1ccc(C(NC(=O)c2ccc(C(F)(F)F)[nH]c2=O)c2ccc(C)cc2)cc1` (stereo not drawn) [Compound 447, N-((4-methoxyphenyl)(p-tolyl)methyl)-2-oxo-6-(trifluoromethyl)-1,2-dihydropyridine-3-carboxamide], the IC50 stood at 160 nM.
In the case of `CSc1ccc(C(NC(=O)c2ccc(C(F)(F)F)[nH]c2=O)c2ccc(C)cc2)cc1` (stereo not drawn) [Compound 448, N-((4-(methylthio)phenyl)(p-tolyl)methyl)-2-oxo-6-(trifluoromethyl)-1,2-dihydropyridine-3-carboxamide], the IC50 was 140 nM.
The value for `COc1cc(C)ccc1C(NC(=O)c1ccc(C(F)(F)F)[nH]c1=O)c1ccccc1` (stereo not drawn) [Compound 449, N-((2-methoxy-4-methylphenyl)(phenyl)methyl)-2-oxo-6-(trifluoromethyl)-1,2-dihydropyridine-3-carboxamide] was 970 nM; that for `Cc1ccc(C(NC(=O)c2ccc(C(F)(F)F)[nH]c2=O)c2ccccc2S(C)(=O)=O)cc1` (stereo not drawn) [Compound 450, N-((2-(methylsulfonyl)phenyl)(p-tolyl)methyl)-2-oxo-6-(trifluoromethyl)-1,2-dihydropyridine-3-carboxamide] was 1100 nM.
The value for `COc1c(C)cccc1C(NC(=O)c1ccc(C(F)(F)F)[nH]c1=O)c1ccccc1` (stereo not drawn) [Compound 451, N-((2-methoxy-3-methylphenyl)(phenyl)methyl)-2-oxo-6-(trifluoromethyl)-1,2-dihydropyridine-3-carboxamide] was 1960 nM.

The IC50 is the concentration that inhibits the measured activity by half.
